From patent publication EP4168403B1 (priority 2020, dated 2021)

Assays:
[1] = test system: voltage-gated Ca^2+ channels (VGCC); assay: Calcium channel antagonist assay (K+-evoked cytosolic Ca2+, Fluo-4); format: cell-based; conditions: SH-SY5Y cells, K+ 70 mM, mean ± SEM, read-out: IC50 (µM) Calcium channels blockade
Procedure: The cytosolic Ca^2+ has been measured in SH-SY5Y cells. SH-SY5Y cells were maintained similarly to what was previously described^30. Free cytosolic Ca^2+ was measured using the fluorescent Ca^2+ indicator Fluo-4/AM (Fluo-4 acetomethoxyester). SH-SY5Y cells were seeded onto 96-well black plates at a density of 10^5 cells per well, achieving confluence after 48 h. Cells were washed with Krebs-Hepes solution (KH, in mM: 144 NaCl, 5.9 KCl, 1.2 MgCl2, 2 CaCl2, 11 D-glucose, 10 HEPES, pH 7.4). Cells were loaded with 10 µM Fluo-4/AM and 0.2% pluronic acid in KH and incubated for 45 min at 37 °C in the dark. Then, cells were washed twice with KH to remove the excess of probe. Tested compounds were incubated 10 min before K+ 70 mM was applied to evoke the increment of cytosolic Ca^2+. To normalize Fluo-4 signals, Triton X-100 (5%) and 1 M MnCl2 were applied to register both maximal and minimal fluorescence, respectively. The experiments were analyzed at excitation and emission wavelengths of 485 and 520 nm, respectively, and fluorescence was measured in a fluorescence microplate reader (FLUOstar Optima, BMG, Germany). Data were calculated as a percentage of Fmax - Fmin.
The blocking effect of the depolarization-induced Ca^2+ uptake was investigated in SH-SY5Y neuroblastoma cells stimulated with an extracellular concentration of K+ 70 mM, which induces the cell Ca^2+ levels elevation by opening voltage-gated Ca^2+ channels (VGCC), monitored with the Ca^2+-sensitive fluorescent dye Fluo-4. Nifedipine was used as positive standard.

Aβ1-42 = target: T1, Aβ1-42 (Homo sapiens, UniProt P05067); assay: Inhibition of Aβ1-42 self-aggregation (ThT fluorescence); format: biochemical; conditions: [Inhibitor]=[Aβ1-42]=50 µM, mean ± SEM
T1 construct: pre-treated Aβ1-42 samples (Bachem AG, Switzerland); purchased Bachem AG, Switzerland
Procedure: Experiments were performed by incubating the peptide in 10 mM phosphate buffer (pH=8.0) containing 10 mM NaCl, at 30 °C for 24 h (final Aβ concentration=50 µM with and without inhibitor (50 µM). The inhibitor was dissolved in methanol and diluted in the assay buffer. Blanks containing inhibitor and ThT were also prepared and evaluated to account for quenching and fluorescence properties. To quantify amyloid fibril formation, the ThT fluorescence method was used^36, 37. After incubation, samples were diluted to a final volume of 2.0 mL with […] glycine-NaOH buffer (pH= 8.5) containing 1.5 µM ThT. A 300-seconds-time scan of fluorescence intensity was carried out (λexc=446 nm; λem=490 nm), and values at plateau were averaged after subtracting the background fluorescence of 1.5 µM ThT solution. The fluorescence intensities were compared and the % inhibition was calculated.
The inhibitory activity of compounds BIGI-3e, BIGI-3h and BIGI-3k against the spontaneous aggregation of Aβ1-42 was determined in vitro using a thioflavin T (ThT)-based fluorometric assay^35. […].

human AChE = target: T2, human AChE (Homo sapiens, UniProt P22303); assay: Kinetic study of inhibition of AChE hydrolysis (Lineweaver-Burk, nonlinear regression); format: biochemical; conditions: for Ki: substrate acetylthiocholine; for type of inhibition: sum-of-squares F-test, p<0.05
T2 construct: purchased Sigma-Aldrich (Prague, Czech Republic); host or cells: human red blood cells
Procedure: To obtain insight into the interactions of BIGI-3h and BIGI-3e with human AChE, a kinetic study was conducted. Substrate concentration - enzyme velocity curves were recorded in the presence of different concentrations of the tested compounds. […] The type of inhibition and corresponding inhibition constants (Ki and Ki') were determined by the nonlinear regression analysis of data. Results for each type model of inhibition (competitive, non-competitive, uncompetitive and mixed) were compared with sum-of-squares F-test. […] BIGI-3h and BIGI-3e bind to both free AChE and AChE-substrate complex, affecting the binding of substrate in the active site of enzyme, interacting with its allosteric peripheral anionic site. Interaction with this site causes conformational changes of the enzyme resulting also in changes of its active site. […]. Measured values are consistent with the IC50 values for AChE. It appears that both tested compounds tend to bind free AChE more than enzyme-substrate complex.

Human recombinant GSK-3β = target: T3, Human recombinant GSK-3β (Homo sapiens, UniProt P49841); assay: GSK-3β inhibition in vitro assay (Kinase-Glo luminescence); format: biochemical; conditions: ATP 1 µM, GSM substrate 25 µM; mean ± SEM
T3 construct: purchased Millipore (Millipore Iberica S.A.U.)
Procedure: Human recombinant GSK-3β, prephosphorylated polypeptide substrate and white 96-well plates were purchased from Millipore (Millipore Iberica S.A.U.). Kinase-Glo Luminescent Kinase Assay was obtained from Promega (Promega Biotech Iberica, SL). Adenosinetriphosphate (ATP) and all other reagents were from Sigma-Aldrich. Assay buffer contained 50 mM 4-(2-hydroxyethyl)-1- piperazineethanesulfonic acid (HEPES) (pH 7.5), 1 mM ethylenediaminetetraacetic acid (EDTA), 1 mM ethylene glycol tetraacetic acid (EGTA), and 15 mM magnesium acetate. The in solution experiments for GSK-3β inhibition analysis were performed by following the method developed by Baki et al^42. In a typical assay, 10 µL of test compound (dissolved in DMSO at 1 mM concentration and diluted in advance in assay buffer to the desired concentration) and 10 µL (20 ng) of enzyme were added to each well in presence of 20 µL of assay buffer containing GSM substrate and ATP in order to reach a 25 µM and 1 µM final concentration respectively. […] After a 30 min incubation time at 30 °C, the enzymatic reaction was stopped by adding 40 µL of Kinase-Glo reagent. Glow-type luminescence was recorded after 10 min using a VictorX 3 PerkinElmer plate reader. […]. The linear regression parameters were determined and the IC50 extrapolated (GraphPad Prism 4.0, GraphPad Software Inc.).

[2] = binding to AChE-substrate complex

T2 sequence (P22303 32-617 isoform P22303-2 limits assumed): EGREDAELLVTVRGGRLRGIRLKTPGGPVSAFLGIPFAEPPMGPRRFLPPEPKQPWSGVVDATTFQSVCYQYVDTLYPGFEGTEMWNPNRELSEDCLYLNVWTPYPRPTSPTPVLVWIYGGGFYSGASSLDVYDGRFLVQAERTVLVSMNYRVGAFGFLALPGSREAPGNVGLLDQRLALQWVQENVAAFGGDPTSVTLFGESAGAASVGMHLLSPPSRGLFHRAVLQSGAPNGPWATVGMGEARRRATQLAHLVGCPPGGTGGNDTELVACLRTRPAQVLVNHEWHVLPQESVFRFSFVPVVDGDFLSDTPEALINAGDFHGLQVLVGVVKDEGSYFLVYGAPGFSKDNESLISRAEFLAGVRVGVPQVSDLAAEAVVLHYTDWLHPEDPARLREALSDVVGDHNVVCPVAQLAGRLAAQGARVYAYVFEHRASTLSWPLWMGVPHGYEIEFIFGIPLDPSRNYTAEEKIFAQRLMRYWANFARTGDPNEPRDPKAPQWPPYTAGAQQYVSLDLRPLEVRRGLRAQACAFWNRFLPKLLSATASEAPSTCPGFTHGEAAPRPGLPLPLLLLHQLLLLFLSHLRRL
T1 sequence (P05067 672-713 limits assumed): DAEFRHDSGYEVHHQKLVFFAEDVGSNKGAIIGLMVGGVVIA
T3 sequence (P49841 whole entry): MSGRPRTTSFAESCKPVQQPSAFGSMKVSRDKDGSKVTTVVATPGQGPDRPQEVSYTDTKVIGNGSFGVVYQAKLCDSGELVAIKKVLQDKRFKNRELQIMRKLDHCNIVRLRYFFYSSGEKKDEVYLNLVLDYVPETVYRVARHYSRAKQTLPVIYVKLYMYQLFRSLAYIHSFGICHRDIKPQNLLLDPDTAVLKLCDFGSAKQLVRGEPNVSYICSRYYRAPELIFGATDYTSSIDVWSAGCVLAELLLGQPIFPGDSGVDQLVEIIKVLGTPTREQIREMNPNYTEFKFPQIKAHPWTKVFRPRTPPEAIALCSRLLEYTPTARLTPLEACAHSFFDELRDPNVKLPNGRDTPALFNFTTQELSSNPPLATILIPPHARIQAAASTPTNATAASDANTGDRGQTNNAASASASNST

| SMILES | IC50 [1] [µM] | inhibition at 50 µM (Aβ1-42) [%] | Ki (human AChE; [2]) [nM] | Ki (human AChE; binding to free AChE) [nM] | type of inhibition (human AChE) | % inhibition Aβ1-42 aggregation (Aβ1-42; 50 µM) [%] | IC50 (Human recombinant GSK-3β) [µM] |
| --- | --- | --- | --- | --- | --- | --- | --- |
| CCOC(=O)C1=C(C)N(CCCC2CCN(Cc3ccccc3)CC2)C(=O)NC1c1coc2cc(CC)ccc2c1=O (centres unmarked) [BIGI-3k, ethyl 1-(3-(1-benzylpiperidin-4-yl)propyl)-4-(7-ethyl-4-oxo-4H-chromen-3-yl)-6-methyl-2-oxo-1,2,3,4-tetrahydropyrimidine-5-carboxylate] | 1.4 ± 0.5 | 63.8 ± 0.8 | – | – | – | – | – |
| CCOC(=O)C1=C(C)N(CCC2CCN(Cc3ccccc3)CC2)C(=O)NC1c1coc2ccc(Br)cc2c1=O (centres unmarked) [BIGI-3e, ethyl 1-(2-(1-benzylpiperidin-4-yl)ethyl)-4-(6-bromo-4-oxo-4H-chromen-3-yl)-6-methyl-2-oxo-1,2,3,4-tetrahydropyrimidine-5-carboxylate] | 1.9 ± 0.6 | 63 ± 2.1 | 89.5 ± 12.5 | 51 ± 12.7 | mixed non-competitive | – | – |
| CCOC(=O)C1=C(C)N(CCC2CCN(Cc3ccccc3)CC2)C(=O)NC1c1coc2c(Cl)cc(Cl)cc2c1=O (racemic) [BIGI-3h, ethyl 1-(2-(1-benzylpiperidin-4-yl)ethyl)-4-(6,8-dichloro-4-oxo-4H-chromen-3-yl)-6-methyl-2-oxo-1,2,3,4-tetrahydropyrimidine-5-carboxylate] | 1.4 ± 0.4 | 66 ± 0.7 | 77.6 ± 16.4 | 21.5 ± 5.19 | mixed non-competitive | 63.6 ± 1.3 | 29.1 |
